Assay results from patent US10562935B2, “Stapled peptides and uses thereof” (London Health Sciences Centre Research Inc., priority 2015, dated 2020).
Bridges are numbered along the chain shown (N, C = ends).

Key:
Type in all cases: cell-based
[1] = Function blocking score: total percent inhibition over migration, invasion, inflammation and fibrosis assays divided by number of assays; details: for Function blocking score (FBS): total percent inhibition for all assays tested divided by number of assays
Description: As documented in the Examples hereinabove, a variety of cyclized peptides were produced that contained the HA-binding domain 1 (HABD1), HA-binding domain 2 (HABD2), or both HABD1 and HABD2. These peptides were evaluated for helicity, direct HA binding and in a number of cell-based bioassays (effects on migration, invasion, NFkB activation, and TGFβ1 production) that are relevant to inflammation and fibrosis. The relationships amongst helicity, HA-binding, and biofunction were evaluated. Peptides were divided into three groups for this analysis: (1) peptides containing HABD1 (“HABD1”); (2) peptides containing HABD2 (“HABD2”); and peptides containing most or all of HABD1 and all of HABD2 (“HABD1+HABD2”). R^2 values were calculated to quantify the relationships between helicity, HA-binding, and biofunction were evaluated.
The results of this analysis for the HABD1 peptides are shown below in Tables 15 and 16. Table 16 provides a function blocking scores for each of the tested peptides and provides R^2 values showing the relationship between HA binding and helicity (“HA binding vs. CD”), HA binding and function-blocking score (“HA binding vs. FBS”) and helicity vs. function-blocking score (“CD vs. FBS”). The same type of summaries are provided for the HABD2 peptides in Tables 17 and 18 below, and for the HABD1+HABD2 peptides in Tables 19 and 20 below.
Function blocking scores were calculated as the total percent inhibition achieved by the peptide for all assays the peptides were tested in, divided by the number of assays. Assays included migration, invasion, inflammation and fibrosis assays. Not all peptides were tested all of the assays. All peptides were included for deriving R^2 values (Pearson's formula).

[2] = test system: IMR90 human fetal lung fibroblasts; experiment: Fibrosis assay: active TGF-β levels in TGF-β treated fibroblasts (ELISA); details: % inhibition relative to positive control
Description: Compounds 132, 133, 135, 150, 152, 157-161, 265-269, 275, 277, and 278 were evaluated for their ability to inhibit fibrosis. IMR90 human fetal lung fibroblasts were obtained from ATCC and maintained in DMEM supplemented with 10% fetal bovine serum. In order to examine the effect of peptides on myofibroblast differentiation, 80% confluent cultures were serum starved overnight prior to addition of TGF-β (2 ng/mL, R&D Systems). Cells were treated with TGF-β for 24 hours prior to addition of peptides (10 ng/mL). 48 hours after addition of peptides, culture supernatants were collected and levels of active TGF-β measured using commercially available TGF-β ELISA (Quantikine, R&D Systems).
Values are the Mean and SDM n=3 replicates. *p<0.05, **p<0.01, ***p<0.001 when compared to the +TGFβ1 control. In FIG. 47, where bars are labeled with two compound numbers (“133/150” and “135/152”) this means that the data were pooled for the indicated compounds, i.e., for the non-acetylated and acetylated versions of the indicated peptides.

[3] = test system: RHAMM-overexpressing (LR21) cells; experiment: Cell invasion assay (Boyden chamber with MATRIGEL, Chemicon ECM555); details: for inhibition of cellular invasion (in words): 10 ng/mL peptide, 20 hours, compared to 30% serum control; for Invasion (% inhib.): % inhibition relative to positive control, 10 ng/mL of peptide
Description: Compounds 132, 133, 135, 150-153, 156, 265-269, and 275-278 were evaluated for their ability to inhibit cellular invasion. Invasion assays were performed using Chemicon Assay Kits ECM555 (Invasion); Billerica, Mass., USA) according to the manufacturer's protocol. Invasion assays are performed in an identical manner as the migration assays described above in Example 5, except that cells are required to invade through a layer of extracellular matrix (MATRIGEL) coating the filter that separates the upper and lower Boyden chambers. Briefly, sub-confluent cultures of RHAMM-overexpressing (LR21) cells were serum starved overnight before plating 7.5×10^4 cells in the upper chamber of a Boyden chamber either in the presence or absence of 10 ng/mL of peptide. 30% fetal bovine serum in DMEM was used as the chemo-attractant in the lower chamber. The number of cells that had crossed the membrane after 20 hours was assessed using the CYQUANT® GR Dye and lysis buffer solution provided in the kit. Fluorescence was measured with a fluorescent plate reader using 480/520 nm filter set.
Values the mean and SDM of n=3 replicates. *p<0.05, **p<0.01, ***p<0.001 All statistics compared to 30% serum control. In FIG. 49, where bars are labeled with two compound numbers (“152/135”) this means that the data were pooled for the indicated compound, i.e., for the non-acetylated and acetylated versions of the indicated peptide.

Substance | Function blocking score (FBS) [1] | Fibrosis (% inhib.) [2] [% inhib.] | inhibition of cellular invasion (in words) [3] | Invasion (% inhib.) [3] [% inhib.] | function blocking (in words) [1]
Ac-(cyclo-4,8)-NLK[EKIKK]VVKLKDE-NH2 (Ac-NLKEKIKKVVKLKDE-NH2; lactam 4-8; SMILES CC[C@H](C)[C@@H]1NC(=O)[C@H](CCCCN)NC(=O)[C@@H](NC(=O)[C@H](CCCCN)NC(=O)[C@H](CC(C)C)NC(=O)[C@H](CC(N)=O)NC(C)=O)CCC(=O)NCCCC[C@@H](C(=O)N[C@H](C(=O)N[C@H](C(=O)N[C@@H](CCCCN)C(=O)N[C@@H](CC(C)C)C(=O)N[C@@H](CCCCN)C(=O)N[C@@H](CC(=O)O)C(=O)N[C@@H](CCC(=O)O)C(N)=O)C(C)C)C(C)C)NC(=O)[C@H](CCCCN)NC1=O) [Compound 157] | 8.6 | 38 |  |  | 
Ac-(cyclo-4,8)-VSK[ERSQK]VKRKQN-NH2 (Ac-VSKERSQKVKRKQN-NH2; lactam 4-8; SMILES CC(=O)N[C@H](C(=O)N[C@@H](CO)C(=O)N[C@@H](CCCCN)C(=O)N[C@H]1CCC(=O)NCCCC[C@@H](C(=O)N[C@H](C(=O)N[C@@H](CCCCN)C(=O)N[C@@H](CCCNC(=N)N)C(=O)N[C@@H](CCCCN)C(=O)N[C@@H](CCC(N)=O)C(=O)N[C@@H](CC(N)=O)C(N)=O)C(C)C)NC(=O)[C@H](CCC(N)=O)NC(=O)[C@H](CO)NC(=O)[C@H](CCCNC(=N)N)NC1=O)C(C)C) [Compound 150] | 27 | 31 | significantly inhibited cellular invasion | 79 | 
Ac-(cyclo-5,9)-NLKQ[EIKHK]VKLKDE-NH2 (Ac-NLKQEIKHKVKLKDE-NH2; lactam 5-9; SMILES CC[C@H](C)[C@@H]1NC(=O)[C@@H](NC(=O)[C@H](CCC(N)=O)NC(=O)[C@H](CCCCN)NC(=O)[C@H](CC(C)C)NC(=O)[C@H](CC(N)=O)NC(C)=O)CCC(=O)NCCCC[C@@H](C(=O)N[C@H](C(=O)N[C@@H](CCCCN)C(=O)N[C@@H](CC(C)C)C(=O)N[C@@H](CCCCN)C(=O)N[C@@H](CC(=O)O)C(=O)N[C@@H](CCC(=O)O)C(N)=O)C(C)C)NC(=O)[C@H](Cc2c[nH]cn2)NC(=O)[C@H](CCCCN)NC1=O) [Compound 158] | 22 | 31 |  |  | 
Ac-(cyclo-5,9)-VSKL[ESQLK]KRKQN-NH2 (Ac-VSKLESQLKKRKQN-NH2; lactam 5-9; SMILES CC(=O)N[C@H](C(=O)N[C@@H](CO)C(=O)N[C@@H](CCCCN)C(=O)N[C@@H](CC(C)C)C(=O)N[C@H]1CCC(=O)NCCCC[C@@H](C(=O)N[C@@H](CCCCN)C(=O)N[C@@H](CCCNC(=N)N)C(=O)N[C@@H](CCCCN)C(=O)N[C@@H](CCC(N)=O)C(=O)N[C@@H](CC(N)=O)C(N)=O)NC(=O)[C@H](CC(C)C)NC(=O)[C@H](CCC(N)=O)NC(=O)[C@H](CO)NC1=O)C(C)C) [Compound 151] | 20 |  |  | 0 | 
Ac-(cyclo-6,10)-NLKQK[EKHVK]KLKDE-NH2 (Ac-NLKQKEKHVKKLKDE-NH2; lactam 6-10; SMILES CC(=O)N[C@@H](CC(N)=O)C(=O)N[C@@H](CC(C)C)C(=O)N[C@@H](CCCCN)C(=O)N[C@@H](CCC(N)=O)C(=O)N[C@@H](CCCCN)C(=O)N[C@H]1CCC(=O)NCCCC[C@@H](C(=O)N[C@@H](CCCCN)C(=O)N[C@@H](CC(C)C)C(=O)N[C@@H](CCCCN)C(=O)N[C@@H](CC(=O)O)C(=O)N[C@@H](CCC(=O)O)C(N)=O)NC(=O)[C@H](C(C)C)NC(=O)[C@H](Cc2c[nH]cn2)NC(=O)[C@H](CCCCN)NC1=O) [Compound 159] | 17 | 50 |  |  | 
Ac-(cyclo-6,10)-VSKLR[EQLVK]RKQN-NH2 (Ac-VSKLREQLVKRKQN-NH2; lactam 6-10; SMILES CC(=O)N[C@H](C(=O)N[C@@H](CO)C(=O)N[C@@H](CCCCN)C(=O)N[C@@H](CC(C)C)C(=O)N[C@@H](CCCNC(=N)N)C(=O)N[C@H]1CCC(=O)NCCCC[C@@H](C(=O)N[C@@H](CCCNC(=N)N)C(=O)N[C@@H](CCCCN)C(=O)N[C@@H](CCC(N)=O)C(=O)N[C@@H](CC(N)=O)C(N)=O)NC(=O)[C@H](C(C)C)NC(=O)[C@H](CC(C)C)NC(=O)[C@H](CCC(N)=O)NC1=O)C(C)C) [Compound 152] | 47 |  | significantly inhibited cellular invasion |  | strong function blocker
Ac-(cyclo-7,11)-NLKQKI[EHVVK]LKDE-NH2 (Ac-NLKQKIEHVVKLKDE-NH2; lactam 7-11; SMILES CC[C@H](C)[C@H](NC(=O)[C@H](CCCCN)NC(=O)[C@H](CCC(N)=O)NC(=O)[C@H](CCCCN)NC(=O)[C@H](CC(C)C)NC(=O)[C@H](CC(N)=O)NC(C)=O)C(=O)N[C@H]1CCC(=O)NCCCC[C@@H](C(=O)N[C@@H](CC(C)C)C(=O)N[C@@H](CCCCN)C(=O)N[C@@H](CC(=O)O)C(=O)N[C@@H](CCC(=O)O)C(N)=O)NC(=O)[C@H](C(C)C)NC(=O)[C@H](C(C)C)NC(=O)[C@H](Cc2c[nH]cn2)NC1=O) [Compound 160] | 0 | 0 |  |  | 
Ac-(cyclo-7,11)-VSKLRS[ELVKK]KQN-NH2 (Ac-VSKLRSELVKKKQN-NH2; lactam 7-11; SMILES CC(=O)N[C@H](C(=O)N[C@@H](CO)C(=O)N[C@@H](CCCCN)C(=O)N[C@@H](CC(C)C)C(=O)N[C@@H](CCCNC(=N)N)C(=O)N[C@@H](CO)C(=O)N[C@H]1CCC(=O)NCCCC[C@@H](C(=O)N[C@@H](CCCCN)C(=O)N[C@@H](CCC(N)=O)C(=O)N[C@@H](CC(N)=O)C(N)=O)NC(=O)[C@H](CCCCN)NC(=O)[C@H](C(C)C)NC(=O)[C@H](CC(C)C)NC1=O)C(C)C) [Compound 153] | 29 |  | significantly inhibited cellular invasion | 58 | 
Ac-(cyclo-8,12)-NLKQKIK[EVVKK]KDE-NH2 (Ac-NLKQKIKEVVKKKDE-NH2; lactam 8-12; SMILES CC[C@H](C)[C@H](NC(=O)[C@H](CCCCN)NC(=O)[C@H](CCC(N)=O)NC(=O)[C@H](CCCCN)NC(=O)[C@H](CC(C)C)NC(=O)[C@H](CC(N)=O)NC(C)=O)C(=O)N[C@@H](CCCCN)C(=O)N[C@H]1CCC(=O)NCCCC[C@@H](C(=O)N[C@@H](CCCCN)C(=O)N[C@@H](CC(=O)O)C(=O)N[C@@H](CCC(=O)O)C(N)=O)NC(=O)[C@H](CCCCN)NC(=O)[C@H](C(C)C)NC(=O)[C@H](C(C)C)NC1=O) [Compound 161] | 22 | 38 |  |  | 
